{
  "source": "patent US9422283B2",
  "about": "“Salts and polymorphs of a substituted imidazopyridinyl-aminopyridine compound” (ArQule, Inc., priority 2014, dated 2016)",
  "type_in_all_cases": "physicochemical",
  "key": {"[1]": {"test": "Thermodynamic aqueous solubility", "description": "Aqueous solubility was determined by suspending sufficient compound in water to give a maximum final concentration of ≧10 mg/ml of the parent free-form of the compound. The suspension was equilibrated at 25° C. for 24 hours then the pH was measured. The suspension was then filtered through a glass fiber C filter. The filtrate was then diluted by an appropriate factor e.g., 101. Quantitation was by HPLC with reference to a standard solution of approximately 0.25 mg/ml in DMSO. Different volumes of the standard, diluted and undiluted sample solutions were injected. The solubility was calculated using the peak areas determined by integration of the peak found at the same retention time as the principal peak in the standard injection.\nAnalysis was performed on an Agilent HP1100 series system equipped with a diode array detector and using ChemStation software vB.02.01-SR1."}, "[2]": {"test": "Gravimetric Vapor Sorption (GVS)", "description": "Sorption isotherms were obtained using a SMS DVS Intrinsic moisture sorption analyzer, controlled by DVS Intrinsic Control software v1.0.0.30. The sample temperature was maintained at 25° C. by the instrument controls. The humidity was controlled by mixing streams of dry and wet nitrogen, with a total flow rate of 200 ml/min. The relative humidity was measured by a calibrated Rotronic probe (dynamic range of 1.0-100% RH), located near the sample. The weight change, (mass relaxation) of the sample as a function of % RH was constantly monitored by the microbalance (accuracy ±0.005 mg).\nTypically 5-20 mg of sample was placed in a tared mesh stainless steel basket under ambient conditions. The sample was loaded and unloaded at 40% RH and 25° C. (typical room conditions). A moisture sorption isotherm was performed as outlined below (4 scans giving 2 complete cycles). The standard isotherm was performed at 25° C. at 10% RH intervals over a 0-90% RH range. Data analysis was undertaken in Microsoft Excel using DVS Analysis Suite v6.0.0.7.\nThe sample was recovered after completion of the isotherm and re-analysed by XRPD. 7.2. Dynamic Vapour Sorption (DVS)"}, "[3]": {"test": "Storage stability of free base and salts (XRPD, IC, 1H NMR pre- and post-storage)"}, "[4]": {"test": "Stability testing of bis-mesylate forms for 1 week (XRPD, HPLC purity)", "description": "Form A, Form B, Form C, Form D, Form E and Form I were exposed to environments of 40° C./75% RH, ambient light (about 22° C.) and elevated temperature (80° C.) for 1 week to determine the stability. The resulting solids were analyzed by XRPD to establish if any form changes had occurred and by HPLC to determine purity."}, "[5]": {"test": "Aqueous solubility studies of bis-mesylate forms (slurry in deionised water, HPLC, XRPD)", "settings": "about 24 hours, ambient temperature", "description": "Purity and concentration analyses were carried out using the following method:\n• Pan Number 186003045 Column Temperature: 25° C. Autosampler Temperature: 5° C. Detection: 226 nm Mobile Phase A: 95:5:0.1% Water:Methanol:TFA Mobile Phase B: 95:5:0.1% Methanol:Water:TFA Gradient: See table below for conditions Flow Rate: 1.0 mL/minute Injection Volume: 10 μl Analysis Time: 36 minutes Re-equilibration Time: 4 minutes Data Collection time: 36 minutes Needle Wash: 100% Methanol\nSlurries of Form A, Form B, Form C, Form D, Form E and Form I were created in deionised water and shaken for about 24 hours at ambient temperature (about 22° C.). The resulting solutions were then analyzed by HPLC and the aqueous solubility was determined. The remaining solids were analyzed by XRPD to determine if any form changes had occurred during slurrying."}, "[6]": {"test": "Dynamic Vapour Sorption (DVS)", "description": "Approximately 10 mg of sample was placed into a mesh vapour sorption balance pan and loaded into a DVS-1 dynamic vapour sorption balance by Surface Measurement Systems. The sample was subjected to a ramping profile of 0-90%, 90-0% relative humidity (RH) at 10% increments for anhydrous samples and 30-90%, 90-0%, 0-90%, 90-0% for hydrated samples, maintaining the sample at each step until a stable weight had been achieved (99.5% step completion). The weight changes during the sorption/desorption cycles were plotted, allowing the hygroscopic nature of the sample to be determined."}},
  "note": "Structures can show the parent of a compound that is named as a salt.",
  "data": [
    {"compound": "Nc1ncccc1-c1nc2ccc(-c3ccccc3)nc2n1-c1ccc(C2(N)CCC2)cc1", "note": "[Compound A mesylate salt, 3-(3-(4-(1-aminocyclobutyl)phenyl)-5-phenyl-3H-imidazo[4,5-b]pyridin-2-yl)pyridin-2-amine]", "values": [
      {"measurement": "solubility at 5 min", "setting": "[1]; water, 25 °C, thermodynamic from solid, in 5 min, pH 2.1", "result": "> 50000", "unit": "µg/mL"},
      {"measurement": "change in XRPD after GVS", "setting": "[2]", "result": "No change in XRPD after GVS"},
      {"measurement": "change after storage", "setting": "[3]; 40° C. and 75% RH, 7 days, XRPD and 1H NMR", "result": "No change in XRPD or ^1H NMR"}
    ]},
    {"compound": "Nc1ncccc1-c1nc2ccc(-c3ccccc3)nc2n1-c1ccc(C2(N)CCC2)cc1", "note": "[Form 1, 3-(3-(4-(1-aminocyclobutyl)phenyl)-5-phenyl-3H-imidazo[4,5-b]pyridin-2-yl)pyridin-2-amine]", "values": [
      {"measurement": "water uptake (GVS)", "setting": "[2]; 0-90% RH", "result": "< 0.8 %, w/w"},
      {"measurement": "water absorption upon storage", "setting": "[2]; FIG. 5 GVS isotherm", "result": "Minimal water absorption"},
      {"measurement": "stability under storage", "setting": "[3]; 25° C. and 0-96% RH, XRPD", "result": "stable"},
      {"measurement": "polymorphic form change on storage", "setting": "[3]; 40° C. and 75% RH, one week, XRPD", "result": "transformed to Form 2"}
    ]},
    {"compound": "Nc1ncccc1-c1nc2ccc(-c3ccccc3)nc2n1-c1ccc(C2(N)CCC2)cc1", "note": "[Compound A HCl salt, 3-(3-(4-(1-aminocyclobutyl)phenyl)-5-phenyl-3H-imidazo[4,5-b]pyridin-2-yl)pyridin-2-amine]", "values": [
      {"measurement": "solubility at 24 h", "setting": "[1]; water, 25 °C, thermodynamic from solid, pH 1.2, max conc. 50 mg/ml", "result": 8300, "unit": "µg/mL"},
      {"measurement": "GVS water uptake", "setting": "[2]; partial run, from 40-90% RH", "result": "partial run: ~18 wt % water uptake"},
      {"measurement": "HCl content by IC after storage", "setting": "[3]; 40° C. and 75% RH, 7 days, 2.2 equi. HCl before storage", "result": "IC converted to 1.6 equi. HCl"}
    ]},
    {"compound": "Nc1ncccc1-c1nc2ccc(-c3ccccc3)nc2n1-c1ccc(C2(N)CCC2)cc1", "note": "[Compound A free base, 3-(3-(4-(1-aminocyclobutyl)phenyl)-5-phenyl-3H-imidazo[4,5-b]pyridin-2-yl)pyridin-2-amine]", "values": [
      {"measurement": "solubility in water (qualitative)", "setting": "[1]", "result": "insoluble in water"}
    ]},
    {"compound": "Nc1ncccc1-c1nc2ccc(-c3ccccc3)nc2n1-c1ccc(C2(N)CCC2)cc1", "note": "[Compound A tris-HCl salt, 3-(3-(4-(1-aminocyclobutyl)phenyl)-5-phenyl-3H-imidazo[4,5-b]pyridin-2-yl)pyridin-2-amine]", "values": [
      {"measurement": "solubility in water (qualitative)", "setting": "[1]", "result": "highly soluble in water"},
      {"measurement": "change of salt under storage", "setting": "[3]; stability study under storage, XRPD", "result": "partially transformed to bis-HCl salt and/or mono-HCl salt"}
    ]},
    {"compound": "Nc1ncccc1-c1nc2ccc(-c3ccccc3)nc2n1-c1ccc(C2(N)CCC2)cc1", "note": "[Form D, 3-(3-(4-(1-aminocyclobutyl)phenyl)-5-phenyl-3H-imidazo[4,5-b]pyridin-2-yl)pyridin-2-amine]", "values": [
      {"measurement": "HPLC purity after stability test", "setting": "[4]; 40° C./75% RH", "result": "about 99.9%"},
      {"measurement": "polymorphic form after stability test (XRPD)", "setting": "[4]; 40° C./75% RH", "result": "converted to Form J"},
      {"measurement": "HPLC purity after stability test", "setting": "[4]; 80° C.", "result": "about 99.9%"},
      {"measurement": "polymorphic form after stability test (XRPD)", "setting": "[4]; 80° C.", "result": "Form I"},
      {"measurement": "polymorphic form after stability test (XRPD)", "setting": "[4]; ambient light (about 22° C.)", "result": "remained unchanged"},
      {"measurement": "HPLC purity after stability test", "setting": "[4]; ambient temperature", "result": "about 99.9%"},
      {"measurement": "polymorphic form after slurrying in deionised water (XRPD)", "setting": "[5]", "result": "converted to Form E"},
      {"measurement": "DVS (summary Table 21)", "setting": "[6]", "result": "Hydration occurs"},
      {"measurement": "DVS desorption behaviour / hysteresis", "setting": "[6]", "result": "gradual loss of water and hence dehydration was observed as the relative humidity was decreased below 40% RH"},
      {"measurement": "DVS water uptake", "setting": "[6]; second sorption cycle, between 30% and 50% RH, after dehydration at 0% RH", "result": "about 12%"}
    ]},
    {"compound": "Nc1ncccc1-c1nc2ccc(-c3ccccc3)nc2n1-c1ccc(C2(N)CCC2)cc1", "note": "[Form I, 3-(3-(4-(1-aminocyclobutyl)phenyl)-5-phenyl-3H-imidazo[4,5-b]pyridin-2-yl)pyridin-2-amine]", "values": [
      {"measurement": "HPLC purity after stability test", "setting": "[4]; 40° C./75% RH", "result": "about 99.8%"},
      {"measurement": "polymorphic form after stability test (XRPD)", "setting": "[4]; 40° C./75% RH", "result": "conversion to Form J"},
      {"measurement": "HPLC purity after stability test", "setting": "[4]; 80° C.", "result": "about 99.9%"},
      {"measurement": "polymorphic form after stability test (XRPD)", "setting": "[4]; 80° C.", "result": "remained unchanged"},
      {"measurement": "polymorphic form after stability test (XRPD)", "setting": "[4]; ambient light (about 22° C.)", "result": "remained unchanged"},
      {"measurement": "HPLC purity after stability test", "setting": "[4]; ambient temperature", "result": "about 99.6%"},
      {"measurement": "polymorphic form after slurrying in deionised water (XRPD)", "setting": "[5]", "result": "converted to Form E"},
      {"measurement": "DVS (summary Table 21)", "setting": "[6]", "result": "Hydration occurs"},
      {"measurement": "DVS desorption behaviour / hysteresis", "setting": "[6]", "result": "gradual loss of water/dehydration below 50% RH"},
      {"measurement": "polymorphic form after DVS analysis (XRPD)", "setting": "[6]", "result": "Form I post"},
      {"measurement": "DVS water uptake", "setting": "[6]; sorption cycle, between 40% and 50% RH", "result": "about 10%"}
    ]}
  ]
}
